Like-named read-outs stand apart in the source and are kept apart here.
Assay: Human coffee intervention study: plasma concentrations after roasted coffee brew by UPLC-MS/MS
Format: in vivo
Conditions: for samples above the LLOQ: n = 10; for concentration at 1 h / concentration at 4 h / concentration at 10 h: human, plasma
Description: The study included ten volunteers (5 females, 5 males) (age: 28.3 ± 2.3 years; BMI: 21.89 ± 2.22 kg/m^2). The intervention study took place from November 5, 2021, to February 17, 2022, in the core facility human studies of the ZIEL Institute for Food and Health of the Technical University of Munich. The study was performed in agreement with the Declaration of Helsinki, and all participants gave written informed consent. The study was approved by the Ethics Committee of the Technical University of Munich (5798/13 S-SR) and registered in the German Register of Clinical Studies (DRKS00005083).
The study participants underwent a dietary protocol that excluded all forms of coffee consumption. Additionally, chocolate, black/green/white, mate tea, cola, energy drinks, and beauty products containing caffeine (e.g., shampoos, creams) were prohibited 1 week before the test day. Furthermore, the study participants received a standardized meal the evening before the test day. The meal was composed of pasta, margarine, and salt, and the amount of energy was calculated based on the participant’s basal energy demand. On the morning of the test day, the participants were in a fastened state and received water (control samples) or coffee brew (coffee intervention) as breakfast. Blood was sampled before coffee intake (0 h) and at defined time points (1, 4, and 10 h) after coffee intake. 6 h after the coffee intake, the participants received lunch, the same standardized meal as the previous dinner. The administered coffee was prepared from a coffee capsule (Nespresso, ROMA) with 100 mL water. The administered volume of the coffee brew was 200 mL. Based on the coffee powder per capsule ([…]), the concentrations of 2 (2.8 μmol/g) and 3 (1.1 μmol/g), respectively,[10] and an estimated extraction rate of 100%, the total ingested amounts were 33.6 μmol (2) and 13.2 μmol (3).
In an Eppendorf tube (1.5 mL), aliquots (50 μL each) of the calibration standard, sample, or QC, respectively, were mixed with the IS solution (1000 nM in ethanol, 50 μL) and acetonitrile/ethanol (9 + 1, v + v, 50 μL) was added. After vortexing, suspensions were cleared by centrifugation (12,000 rpm, 4 °C, 10 min), and the supernatant (∼100 μL) was transferred to an HPLC vial with 200 μL insert for analysis (5 μL injection).
The UPLC–MS/MS system consisted of a Shimadzu Nexera X2 UPLC system (Shimadzu, Duisburg, Germany) hyphenated to a QTrap 5500 MS/MS system (Sciex, Darmstadt, Germany) operating in negative electrospray (ESI^–) mode with the following ion source parameters: ion spray voltage: −4500 V; source temperature: 500 °C; nebulizer gas: 55 psi; heater gas: 65 psi; and curtain gas: 35 psi. The MS/MS parameters, including the collision cell entrance potential (CEP), declustering potential (DP), collision energy (CE), and cell exit potential (CXP), were tuned for each compound and mass transition and are summarized in Supporting Table S3. The dwell time for each compound was 30 ms, and the total cycle time was 0.75 s. Chromatographic separation was achieved on a C18 column (Kinetex C18, 100 mm × 2.1 mm, 1.7 μm, Phenomenex, Aschaffenburg, Germany) at a flow rate of 500 μL/min flow rate. Eluent A was 0.1% formic acid in water, and eluent B was 0.1% formic acid in acetonitrile. B was kept at 3% (1 min), increased to 25% (in 3 min), 90% (in 2 min, 1 min isocratic), and 3% (0.5 min, 2.5 min isocratic). The total time of the analysis was 10 min. The column effluent was introduced from the waste to the MS/MS system between 3 and 7 min.
We applied this method to human plasma samples from a coffee intervention study to investigate the appearance of coffee compounds 1–3 and metabolites M1–M3. Ten participants underwent a washout period (7 days) and then consumed one dose of […]. Blood samples were taken at baseline (0 h) and 1, 4, and 10 h after the intervention. […]

C=C1C2CCC3C4(C)CC(O)CC(C(=O)OC5OC(C(=O)O)C(O)C(O)C5O)C4CCC3(C2)C1O [M1, atractyligenin-19-O-β-D-glucuronide]
plasma level at baseline (0 h, before coffee intake, human plasma): no peaks were detected
plasma concentration, mean ± SD (4 h after coffee brew (200 mL), human plasma, values above LLOQ): 11.7 ± 10.7 nM
samples above the LLOQ (4 h after coffee): 80%
plasma concentration, mean ± SD (10 h after coffee brew (200 mL), human plasma, values above LLOQ): 13.1 ± 5.8 nM
samples above the LLOQ (10 h after coffee): 90%
concentration at 1 h (both sexes, oral, 200 mL, 1 h after coffee brew (200 mL), human plasma, values above LLOQ, read-out: plasma concentration, mean ± SD): 25.1 ± 4.9 nM
concentration at 4 h (both sexes, oral, 200 mL, 4 h after coffee brew (200 mL), human plasma, values above LLOQ, read-out: plasma concentration, mean ± SD): 14.2 ± 10.5 nM
concentration at 10 h (both sexes, oral, 200 mL, 10 h after coffee brew (200 mL), human plasma, values above LLOQ, read-out: plasma concentration, mean ± SD): 14.4 ± 4.4 nM
Cmax (both sexes, oral, human plasma after coffee brew (200 mL), n = 10, mean ± SD, read-out: estimated cmax in plasma): 25.1 ± 4.9 nM
time of estimated cmax (human plasma after coffee brew (200 mL), sampling only at 0, 1, 4, 10 h): 1 h
concentration at 4 h (oral, 200 mL coffee brew, participant xrwz, 4 h after coffee, b = below LLOQ, read-out: plasma concentration, individual): 1.7 nM
concentration at 1 h (oral, 200 mL, participant ayia, 1 h after coffee, read-out: plasma concentration, individual): 16.4 nM
concentration at 4 h (oral, 200 mL, participant ayia, 4 h after coffee, b = below LLOQ, read-out: plasma concentration, individual): 1.7 nM
concentration at 10 h (oral, 200 mL, participant ayia, 10 h after coffee, read-out: plasma concentration, individual): 17.2 nM
concentration at 1 h (oral, 200 mL, participant cbdu, 1 h after coffee, b = below LLOQ, read-out: plasma concentration, individual): 24.6 nM
concentration at 4 h (oral, 200 mL, participant cbdu, 4 h after coffee, read-out: plasma concentration, individual): 2.9 nM
concentration at 10 h (oral, 200 mL, participant cbdu, 10 h after coffee, read-out: plasma concentration, individual): 17.8 nM
concentration at 1 h (oral, 200 mL, participant eogo, 1 h after coffee, b = below LLOQ, read-out: plasma concentration, individual): 30 nM
concentration at 4 h (oral, 200 mL, participant eogo, 4 h after coffee, b = below LLOQ, read-out: plasma concentration, individual): 4.6 nM
concentration at 10 h (oral, 200 mL, participant eogo, 10 h after coffee, b = below LLOQ, read-out: plasma concentration, individual): 12.3 nM
concentration at 1 h (oral, 200 mL, participant ggot, 1 h after coffee, read-out: plasma concentration, individual): 32.2 nM
concentration at 4 h (oral, 200 mL, participant ggot, 4 h after coffee, b = below LLOQ, read-out: plasma concentration, individual): 9.7 nM
concentration at 10 h (oral, 200 mL, participant ggot, 10 h after coffee, b = below LLOQ, read-out: plasma concentration, individual): 1.7 nM
concentration at 1 h (oral, 200 mL, participant imhz, 1 h after coffee, read-out: plasma concentration, individual): 30.6 nM
concentration at 4 h (oral, 200 mL, participant imhz, 4 h after coffee, read-out: plasma concentration, individual): 10.5 nM
concentration at 10 h (oral, 200 mL, participant imhz, 10 h after coffee, read-out: plasma concentration, individual): 21.5 nM
concentration at 1 h (oral, 200 mL, participant mgjj, 1 h after coffee, read-out: plasma concentration, individual): 23.6 nM
concentration at 4 h (oral, 200 mL, participant mgjj, 4 h after coffee, read-out: plasma concentration, individual): 12.4 nM
concentration at 10 h (oral, 200 mL, participant mgjj, 10 h after coffee, read-out: plasma concentration, individual): 17.5 nM
concentration at 1 h (oral, 200 mL, participant rrmk, 1 h after coffee, read-out: plasma concentration, individual): 22 nM
concentration at 4 h (oral, 200 mL, participant rrmk, 4 h after coffee, b = below LLOQ, read-out: plasma concentration, individual): 19.7 nM
concentration at 10 h (oral, 200 mL, participant rrmk, 10 h after coffee, read-out: plasma concentration, individual): 14.4 nM
concentration at 1 h (oral, 200 mL, participant wbqj, 1 h after coffee, b = below LLOQ, read-out: plasma concentration, individual): 27.5 nM
concentration at 4 h (oral, 200 mL, participant wbqj, 4 h after coffee, b = below LLOQ, read-out: plasma concentration, individual): 36 nM
concentration at 10 h (oral, 200 mL, participant wbqj, 10 h after coffee, b = below LLOQ, read-out: plasma concentration, individual): 8.5 nM
concentration at 1 h (oral, 200 mL, participant wbvs, 1 h after coffee, read-out: plasma concentration, individual): 23.8 nM
concentration at 4 h (oral, 200 mL, participant wbvs, 4 h after coffee, read-out: plasma concentration, individual): 17.8 nM
concentration at 10 h (oral, 200 mL, participant wbvs, 10 h after coffee, read-out: plasma concentration, individual): 9.7 nM
concentration at 1 h (oral, 200 mL, participant xrwz, 1 h after coffee, read-out: plasma concentration, individual): 20.2 nM
concentration at 10 h (oral, 200 mL, participant xrwz, 10 h after coffee, b = below LLOQ, read-out: plasma concentration, individual): 10.5 nM
participants in whom plasma concentration increased between 4 and 10 h (individual plots, after first maximum at 1 h): 60%

— publication PMC10722499, “Consumption of Roasted Coffee Leads to Conjugated Metabolites of Atractyligenin in Human Plasma” (Journal of Agricultural and Food Chemistry, 2023)
